pIC50: −log10 of the molar value. The source made the active and inactive calls. The rule behind the calls is not given here.
Columns and labels:
[1] = system: MGC-803; assay: Antiproliferative activity against human MGC-803 cells incubated for 48 hrs by MTT assay; assay type: functional, cell-based; conditions: MGC-803, 48 h
[2] = system: HepG2; assay: Antiproliferative activity against human HepG2 cells incubated for 48 hrs by MTT assay; assay type: functional, cell-based; conditions: HepG2, 48 h
[3] = system: SK-OV-3; assay: Antiproliferative activity against human SK-OV-3 cells incubated for 48 hrs by MTT assay; assay type: functional, cell-based; conditions: SK-OV-3, 48 h
[4] = system: T-24; assay: Antiproliferative activity against human T24 cells incubated for 48 hrs by MTT assay; assay type: functional, cell-based; conditions: T-24, 48 h
[5] = system: A549; assay: Antiproliferative activity against human A549 cells incubated for 48 hrs by MTT assay; assay type: functional, cell-based
[6] = system: A549/CDDP; assay: Antiproliferative activity against human A549/DDP cells incubated for 48 hrs by MTT assay; assay type: functional, cell-based
[7] = system: T-24; assay: Antiproliferative activity against human T24 cells xenografted in nude mouse model assessed as tumor inhibition rate at 5 mg/kg, ip administered once every two days for 21 days relative to control; assay type: functional; conditions: T-24, 504 h, time 21 day
[8] = system: T-24; assay: Antiproliferative activity against human T24 cells xenografted in nude mouse model assessed as tumor inhibition rate at 15 mg/kg, ip administered once every two days for 21 days relative to control; assay type: functional; conditions: T-24, 504 h, time 21 day
[9] = Toxicity in nude mouse model xenografted with human T24 cells assessed as pathological change in heart at 5 to 15 mg/kg, ip administered once every two days for 21 days; assay type: organism-based, T-24; conditions: in vivo, 504 h, dose 5-15 mg/kg, time 21 day
[10] = Toxicity in nude mouse model xenografted with human T24 cells assessed as pathological change in liver at 5 to 15 mg/kg, ip administered once every two days for 21 days; assay type: organism-based, T-24; conditions: in vivo, 504 h, dose 5-15 mg/kg, time 21 day
[11] = Toxicity in nude mouse model xenografted with human T24 cells assessed as pathological change in spleen at 5 to 15 mg/kg, ip administered once every two days for 21 days; assay type: organism-based, T-24; conditions: in vivo, 504 h, dose 5-15 mg/kg, time 21 day
[12] = Toxicity in nude mouse model xenografted with human T24 cells assessed as pathological change in lung at 5 to 15 mg/kg, ip administered once every two days for 21 days; assay type: organism-based, T-24; conditions: in vivo, 504 h, dose 5-15 mg/kg, time 21 day
[13] = system: HepG2; assay: Antiproliferative activity against human HepG2 cells xenografted in nude mouse model assessed as tumor inhibition rate at 5 mg/kg, ip administered once every two days for 21 days relative to control; assay type: functional; conditions: HepG2, 504 h, time 21 day
[14] = system: HepG2; assay: Antiproliferative activity against human HepG2 cells xenografted in nude mouse model assessed as tumor inhibition rate at 15 mg/kg, ip administered once every two days for 21 days relative to control; assay type: functional; conditions: HepG2, 504 h, time 21 day
[15] = Toxicity in nude mouse model xenografted with human HepG2 cells assessed as pathological change in heart at 5 to 15 mg/kg, ip administered once every two days for 21 days; assay type: organism-based; conditions: in vivo, 504 h, dose 5-15 mg/kg, time 21 day
[16] = Toxicity in nude mouse model xenografted with human HepG2 cells assessed as pathological change in liver at 5 to 15 mg/kg, ip administered once every two days for 21 days; assay type: organism-based; conditions: in vivo, 504 h, dose 5-15 mg/kg, time 21 day
[17] = Toxicity in nude mouse model xenografted with human HepG2 cells assessed as pathological change in spleen at 5 to 15 mg/kg, ip administered once every two days for 21 days; assay type: organism-based; conditions: in vivo, 504 h, dose 5-15 mg/kg, time 21 day
[18] = Toxicity in nude mouse model xenografted with human HepG2 cells assessed as pathological change in lung at 5 to 15 mg/kg, ip administered once every two days for 21 days; assay type: organism-based; conditions: in vivo, 504 h, dose 5-15 mg/kg, time 21 day
[19] = system: SK-OV-3; assay: Antiproliferative activity against human SK-OV-3 cells xenografted in nude mouse model assessed as tumor inhibition rate at 15 mg/kg, ip administered once every two days for 21 days relative to control; assay type: functional; conditions: SK-OV-3, 504 h, time 21 day
[20] = system: SK-OV-3; assay: Antiproliferative activity against human SK-OV-3 cells xenografted in nude mouse model assessed as tumor inhibition rate administered intraperitoneally once every two days for 21 days; assay type: functional, cell-based; conditions: dose 15.0 mg/kg, route ip, time 21.0 day
[21] = Toxicity in nude mouse model xenografted with human SK-OV-3 cells assessed as pathological change in heart at 15 mg/kg, ip administered once every two days for 21 days; assay type: organism-based; conditions: in vivo, 504 h, time 21 day
[22] = Toxicity in nude mouse model xenografted with human SK-OV-3 cells assessed as pathological change in liver at 15 mg/kg, ip administered once every two days for 21 days; assay type: organism-based; conditions: in vivo, 504 h, time 21 day
[23] = Toxicity in nude mouse model xenografted with human SK-OV-3 cells assessed as pathological change in spleen at 15 mg/kg, ip administered once every two days for 21 days; assay type: organism-based; conditions: in vivo, 504 h, time 21 day
[24] = Toxicity in nude mouse model xenografted with human SK-OV-3 cells assessed as pathological change in lung at 15 mg/kg, ip administered once every two days for 21 days; assay type: organism-based; conditions: in vivo, 504 h, time 21 day

CNCCCN1C(=O)c2cccc3c(N4CCN(C(=S)SCc5ccccc5)CC4)ccc(c23)C1=O
pIC50 [1]: 5.52
pIC50 [2]: 5.81
pIC50 [3]: 5.97
pIC50 [4]: 6.23
Activity [5]: Active
Activity [6]: Active
inhibition in vivo at 5 mg/kg [7]: 55.1%
inhibition in vivo at 15 mg/kg [8]: 57.1%
Activity [9]: Non-Toxic
Activity [10]: Non-Toxic
Activity [11]: Non-Toxic
Activity [12]: Non-Toxic
inhibition in vivo at 5 mg/kg [13]: 53%
inhibition in vivo at 15 mg/kg [14]: 58.8%
Activity [15]: Non-Toxic
Activity [16]: Non-Toxic
Activity [17]: Non-Toxic
Activity [18]: Non-Toxic
inhibition in vivo at 15 mg/kg [19]: 53.1%
inhibition [20]: Dose-Dependent Effect
Activity [21]: Non-Toxic
Activity [22]: Non-Toxic
Activity [23]: Non-Toxic
Activity [24]: Non-Toxic

From ChEMBL document CHEMBL5532646, “Discovery of 4-(N-dithiobenzyl piperazine)-1,8-naphthalimide as a potent multi-target antitumor agent with good efficacy, limited toxicity, and low resistance” (Eur J Med Chem, 2024)
